What was measured:
H3K9me3 = experiment: Immunostaining of H3K9me3 in 1-cell mouse SCNT embryos after mRNA injection; format: cell-based; details: 1-cell stage, 5 hours after mRNA injection
Procedure: Mouse somatic cell nuclear transfer was carried out as described previously (Matoba et al., 2014). Briefly, both recipient MII oocytes and donor cumulus cells were collected from adult BDF1 female mice through superovulation by injecting 7.5 IU of pregnant mare serum gonadotropin (PMSG; Millipore #367222) and 7.5 IU of human chorionic gonadotropin (hCG; Millipore #230734). Fifteen to seventeen hours after the hCG injection, cumulus-oocyte complexes (COCs) were collected from the oviducts and treated briefly with Hepes-buffered potassium simplex-optimized medium (KSOM) containing 300 U/ml bovine testicular hyaluronidase (Calbiochem #385931) to obtain dissociated MII oocytes and cumulus cells. Isolated MII oocytes were enucleated in Hepes-buffered KSOM medium containing 7.5 jig/ml of cytochalasin B (Calbiochem #250233) by using Piezo-driven micromanipulator (Primetech # PMM-150FU). The nuclei of donor cumulus cells were injected into the enucleated oocytes. After 1 h incubation in KSOM, reconstructed SCNT oocytes were activated by incubating in Ca-free KSOM containing 2.5 mM SrCl2 and 5 jig/ml cytochalasin B for 1 h, and further cultured in KSOM with cytochalasin B for 4 h. […] Preimplantation developmental rates were analyzed by Student's T-test. […]

human SCNT blastocysts = experiment: Derivation of human NTK-ESCs from KDM4A-assisted SCNT blastocysts; format: cell-based
Procedure: All expanded blastocysts were treated with acid Tyrode solution to remove the zona pellucida, then the entire blastocysts (without removing trophectoderm) were plated onto mitotically-inactivated mouse fibroblasts (MEFs, Global Stem Inc.) in knockout-DMEM supplemented with Knockout Serum Replacement (10% SR, Invitrogen), FBS (10% Hyclone), bFGF (30 ng/ml), human LIF (2000 units/ml, Sigma-Aldrich), and ROCK inhibitor (1 uM, Sigma-Aldrich). The derivation medium was not changed for the next 3 days, then 1/2 medium was replaced with fresh medium without the ROCK inhibitor daily as previously described (Chung et al., 2008). After 3 passages, the amount of FBS was reduced to 2%, replacing it with SR. After 5 passages, the ES cells were cultured in DMEM/F12 supplemented with FGF (8 ng/ml, Invitrogen), SR (18%, Invitrogen), and FBS (2% Hyclone). After the 10 passages, the ES cells were maintained in DMEM/F12 supplemented with FGF (8 ng/ml) and 20% SR.

KDM4A mRNA: in vitro transcribed mRNA of full length human KDM4A/JHDM3A cDNA, an H3K9me3 demethylase (SEQ ID NO: 1)
H3K9me3 levels in the nucleus of mouse SCNT embryos (H3K9me3): greatly reduced H3K9me3 levels
stable NT-ESC lines derived (human SCNT blastocysts; after five passages, from eight expanded blastocysts): four stable NT-ESC lines
expanded blastocysts attached to MEF feeder cells and initiated outgrowth (human SCNT blastocysts; of eight expanded blastocysts): Seven out of the eight
